This is an account of results in patent US8722629B2, “Auristatin derivatives and use thereof” (Seattle Genetics, Inc., priority 2010, dated 2014).

SMILES strings stand for the structures. Counter-ions that a name gives are not always drawn. Starred links: 1 amine or outer side, 2 acyl side, 3 side chain; linkers in the order of their positions; H or OH if unused. Non-standard residues stand in square brackets, D forms with d. Residues, ends and D or L forms follow the SMILES beside them. *: point of attachment. Dolaproine = CO[C@@H]([C@@H]1CCCN1)[C@@H](C)C(=O)O; X2 = C[C@@H](c1ccccc1)[C@H](N[*:1])C(=O)[*:2]; X1 = O=C([C@]1(N[*:1])C[C@@H]1c1ccccc1)[*:2]; Dil = CC[C@H](C)[C@H](NC)[C@@H](CC(=O)O)OC; Oxazinan2yl(1,2) = C1CCN(*)OC1; NMeV = CN[C@H](C(=O)O)C(C)C; X3 = c1ccc2c(c1)CON(*)C2

Series [1] concerns human renal cancer cell line 786-0. The series can be described thus: Antiproliferative effect on the 786-0 RCC cell line (MTT assay). The class given is cell-based. To be noted: Homo sapiens, 786-0, 786-0 cells, incubation 48 h to 96 h. The method, then: B-1. Determination of the Antiproliferative Effect on the 786-0 RCC Cell Line:
A defined cell number of the human renal cancer cell line 786-0 was sown in a 96-well microtiter plate in complete medium (2500 or 7000 cells/well) and incubated at 37° C./5% CO2 overnight. After 18 h, the sowing medium was replaced by serum-free medium or medium with 2% FCS. Treatment was initiated by addition of the respective test substance in varying concentration (10^−5 M to […]). The chosen incubation times were from 48 h to 96 h. Proliferation was determined with the aid of the MTT assays (ATCC, Manassas, Va., USA, catalogue No. 30-1010K). After the incubation time, the MTT reagent was incubated with the cells for 4 h, and the cells were subsequently lysed by adding the detergent overnight. The dye formed was detected at 570 nm. […] The data obtained from this test are triple determinations, and at least two independent experiments were carried out.
Background: Formazan colour is commonly taken as a measure of viable cells.

In series [2] the test system is human colon carcinoma cell line HT29 wt (wild type). The series can be described thus: Antiproliferative effect on the HT29 wt cell line (MTT assay). Format: cell-based. As to conditions: Homo sapiens, HT-29, HT29 wt cells, 10% FCS, incubation 48 h to 96 h. The method, then: B-2. Determination of the Antiproliferative Effect on the HT29 Wt Cell Line:
A defined cell number of the human colon carcinoma cell line HT29 wt (wild type) was sown in a 96-well microtiter plate in complete medium (10% FCS-RPMI) (2500 cells/well) and incubated at 37° C./5% CO2 overnight. After 18 h, the sowing medium was replaced by fresh medium with 10% FCS. Treatment was initiated by addition of the respective test substance. From the substances to be investigated, dose/activity curves in a concentration range of from 10^−5 M to 10^−14 M (1:10-dilution series) were determined. The chosen incubation times were from 48 h to 96 h. Pro-liferation was determined with the aid of the MTT assays (ATCC, Manassas, Va., USA, catalogue No. 30-1010K). After the incubation time, the MTT reagent was incubated with the cells for 4 h, and the cells were subsequently lysed by adding the detergent overnight. The dye formed was detected at 570 nm. Proliferation of cells which had not been treated with test substance, but had otherwise been treated identically, was defined as 100%. The data obtained from this test are triple determinations, and at least two independent experiments were carried out.

Series [3] is described as follows: Plasma stability in vitro, human plasma. The class given is in vitro ADME. The method, then:
(§1) B-4. Determination of the Plasma Stability in vitro:
(§2) 1 mg of the test substance in question was dissolved in 0.5 ml of acetonitrile/DMSO (9:1). From this solution, 20 μl were removed and added to 1 ml of rat or human plasma at 37° C. (plasma of male Wistar rats with Li heparin from Harlan & Winkelmann or fresh human leukocyte-depleted plasma originating from a whole blood sample). From this plasma solution, which was shaken vigorously, 100 μl aliquots were removed immediately after addition of the sample (initial value as reference) and then after 5, 10, 30, 60, 120, 180 and 240 minutes and optionally after 24 hours and added to 300 μl of acetonitrile. The precipitated plasma proteins were removed by centrifugation at 5000 rpm for 10 minutes, and 30 μl of the supernatant were analysed by HPLC for its content of unmodified test substance. Quantification was via the area percentages of the corresponding peaks.
HPLC Method for Human Plasma:
Instrument: Agilent 1100 with DAD, binary pump, autosampler, column oven and thermostat;
column: Kromasil 100 C18, 250 mm×4 mm, 5 μm; column temperature: 45° C.; mobile phase A: 5 ml of perchloric acid/1 of water, mobile phase B: acetonitrile; gradient: 0-3 min 98% A, 2% B; 3-10 min 65% A, 35% B; 10-15 min 40% A, 60% B; 15-21 min 10% A, 90% B; 21-22 min 10% A, 90% B; 22-24 min 98% A, 2% B; 24-26 min 98% A, 2% B; flow rate: 2 ml/min; UV detection: 220 nm.
(§3) The test substance was incubated in rat or human plasma at 37° C. over a period of 5 h with gentle stirring. At different points in time (0, 2, 5, 10, 20, 30, 60, 120, 180 and 300 minutes), a 100 μl aliquot was removed. Following addition of internal standard (10 μl), the proteins were precipitated by addition of 200 μl of acetonitrile and the mixture was centrifuged in an Eppendorf centrifuge for 5 minutes. After addition of 150 μl of ammonium acetate buffer pH 3 to 150 μl of the supernatant, the content of unmodified test substance was analysed by LC/MSMS.

Series [4] is described as follows: Plasma stability in vitro, rat plasma. The class given is in vitro ADME. As to conditions: 37° C.; for half-life at 39.2 µg/ml: male, Wistar, rat plasma (Li heparin), Method A (HPLC). How it is done:
as §1, §2
HPLC Method for Rat Plasma:
Instrument: Agilent 1200 with DAD, binary pump, autosampler, column oven and thermostat; column: Kromasil 100 C18, 250 mm×4 mm, […]; column temperature: 45° C.; mobile phase A: 5 ml of perchloric acid/1 of water, mobile phase B: acetonitrile; gradient: 0-8 min 98% A, 2% B; 8-15 min 56% A, 44% B; […] 10% A, 90% B; 20-21 min 10% A, 90% B; […] 98% A, 2% B; […] 98% A, 2% B; flow rate: 2 ml/min; UV detection: 220 nm.
as §3

Broadly, the IC50 is the concentration that gives 50% inhibition. A lower IC50 goes with greater potency. For `CC[C@H](C)[C@@H]([C@@H](CC(=O)N1CCC[C@H]1[C@H](OC)[C@@H](C)C(=O)N[C@@H](Cc1ccccc1)C(=O)N1CCCCO1)OC)N(C)C(=O)[C@@H](NC(=O)[C@@H](NC)C(C)C)C(C)C` [Example 1, N-Methyl-L-valyl-N-[(3R,4S,5S)-3-methoxy-1-{(2S)-2-[(1R,2R)-1-methoxy-2-methyl-3-{[(2S)-1-(1,2-oxazinan-2-yl)-1-oxo-3-phenylpropan-2-yl]amino}-3-oxopropyl]pyrrolidin-1-yl}-5-methyl-1-oxoheptan-4-yl]-N-methyl-L-valinamide, trifluoroacetic acid salt] (H-[NMeV]V[Dil][Dolaproine]F-{Oxazinan2yl(1,2)}), the IC50 amounted to 4 nM in series [1] and 0.1 nM in series [2]. Moreover, the “degradation in human plasma after 24 h” value in series [3] is reported as “no degradation was observed”.

Usually half-life stands for the time needed for the level to fall by half in the phase considered. Read a low half-life as rapid decline. As for `CC[C@H](C)[C@@H]([C@@H](CC(=O)N1CCC[C@H]1[C@H](OC)[C@@H](C)C(=O)N[C@H](C(=O)N1CCCCO1)[C@@H](C)c1ccccc1)OC)N(C)C(=O)[C@@H](NC(=O)[C@@H](NC)C(C)C)C(C)C` [Example 4, N-Methyl-L-valyl-N-[(3R,4S,5S)-3-methoxy-1-{(2S)-2-[(1R,2R)-1-methoxy-2-methyl-3-{[(2S,3S)-1-(1,2-oxazinan-2-yl)-1-oxo-3-phenylbutan-2-yl]amino}-3-oxopropyl]pyrrolidin-1-yl}-5-methyl-1-oxoheptan-4-yl]-N-methyl-L-valinamide, trifluoroacetic acid salt] (H-[NMeV]V[Dil][Dolaproine][X2]-{Oxazinan2yl(1,2)}), the IC50 in series [1] amounted to 14 nM; in series [2] it was 0.2 nM. Besides, the half-life in series [4] (Method B (LC/MSMS)) is 3 h.

As to `CC[C@H](C)[C@@H]([C@@H](CC(=O)N1CCC[C@H]1[C@H](OC)[C@@H](C)C(=O)N[C@@]1(C(=O)N2CCCCO2)C[C@@H]1c1ccccc1)OC)N(C)C(=O)[C@@H](NC(=O)[C@@H](NC)C(C)C)C(C)C` [Example 17, N-Methyl-L-valyl-N-[(3R,4S,5S)-3-methoxy-1-{(2S)-2-[(1R,2R)-1-methoxy-2-methyl-3-{[(1S,2R)-1-(1,2-oxazinan-2-ylcarbonyl)-2-phenylcyclopropyl]amino}-3-oxopropyl]pyrrolidin-1-yl}-5-methyl-1-oxoheptan-4-yl]-N-methyl-L-valinamide, trifluoroacetic acid salt] (H-[NMeV]V[Dil][Dolaproine][X1]-{Oxazinan2yl(1,2)}), the IC50 was determined as 4 nM in series [1] and 0.5 nM in series [2]. In series [4], the half-life at 39.2 µg/ml was > 24 h. In addition, in series [3], the “degradation in human plasma after 24 h” value is recorded as “no degradation was observed”.

In series [2], `CC[C@H](C)[C@@H]([C@@H](CC(=O)N1CCC[C@H]1[C@H](OC)[C@@H](C)C(=O)N[C@@]1(C(=O)N2Cc3ccccc3CO2)C[C@@H]1c1ccccc1)OC)N(C)C(=O)[C@@H](NC(=O)[C@@H](NC)C(C)C)C(C)C` [Example 18, N-Methyl-L-valyl-N-[(3R,4S,5S)-1-{(2S)-2-[(1R,2R)-3-{[(1S,2R)-1-(1,4-dihydro-3H-2,3-benzoxazin-3-ylcarbonyl)-2-phenylcyclopropyl]amino}-1-methoxy-2-methyl-3-oxopropyl]pyrrolidin-1-yl}-3-methoxy-5-methyl-1-oxoheptan-4-yl]-N-methyl-L-valinamide, trifluoroacetic acid salt] (H-[NMeV]V[Dil][Dolaproine][X1]-X3) returned an IC50 of 1.2 nM. Besides, the half-life at 39.2 µg/ml in series [4] was > 24 h.

For the compound `CC[C@H](C)[C@@H]([C@@H](CC(=O)N1CCC[C@H]1[C@H](OC)[C@@H](C)C(=O)N[C@H](Cc1ccccc1)C(=O)N1CCCCO1)OC)N(C)C(=O)[C@@H](NC(=O)[C@@H](NC)C(C)C)C(C)C` [Example 21, N-Methyl-L-valyl-N-[(3R,4S,5S)-3-methoxy-1-{(2S)-2-[(1R,2R)-1-methoxy-2-methyl-3-{[(2R)-1-(1,2-oxazinan-2-yl)-1-oxo-3-phenylpropan-2-yl]amino}-3-oxopropyl]pyrrolidin-1-yl}-5-methyl-1-oxoheptan-4-yl]-N-methyl-L-valinamide, trifluoroacetic acid salt] (H-[NMeV]V[Dil][Dolaproine][dF]-{Oxazinan2yl(1,2)}), the “degradation in human plasma after 24 h” value in series [3] is “no degradation was observed”.

As for `CC[C@H](C)[C@@H]([C@@H](CC(=O)N1CCC[C@H]1[C@H](OC)[C@@H](C)C(=O)N[C@@]1(C(=O)N2CCCCO2)C[C@@H]1c1ccccc1)OC)N(C)C(=O)[C@@H](NC(=O)[C@H](C(C)C)N(C)CCCC(=O)O)C(C)C` [Example 23, N-(3-Carboxypropyl)-N-methyl-L-valyl-N-[(3R,4S,5S)-3-methoxy-1-{(2S)-2-[(1R,2R)-1-methoxy-2-methyl-3-{[(1S,2R)-1-(1,2-oxazinan-2-ylcarbonyl)-2-phenylcyclopropyl]amino}-3-oxopropyl]-pyrrolidin-1-yl}-5-methyl-1-oxoheptan-4-yl]-N-methyl-L-valinamide], the IC50 in series [1] was found to be 11 nM; in series [2] it was 0.7 nM. Also, the half-life at 39.2 µg/ml in series [4] is > 24 h.

As to `CC[C@H](C)[C@@H]([C@@H](CC(=O)N1CCC[C@H]1[C@H](OC)[C@@H](C)C(=O)N[C@@H](Cc1ccccc1)C(=O)OC)OC)N(C)C(=O)[C@@H](NC(=O)[C@@H](NC)C(C)C)C(C)C` [MMAF-OMe, Monomethylauristatin F methyl ester, reference compound] (H-[NMeV]V[Dil][Dolaproine]F-OMe), in series [4] (Method A), the t1/2 is < 1 min. In series [3], the “degraded in human plasma during 24 h” value is recorded as “about 20%”.
